Calls of active or inactive are those of the source. The calls are words filed in the database; no cut-off is given here. Where a SMILES comes first, the peptide text is derived from it. The star is where a group is joined. X1 = O=C(c1ccccc1-c1c2ccc(=O)cc-2oc2cc(O)ccc12)*

Data set [1] relates to K562. The data set can be described thus: Induction of apoptosis in human K562 cells assessed as cell death at 10 to 20 uM incubated for 24 hrs by AnnexinV-FITC/propidium iodide staining based flow cytometric analysis. It counts as functional. The note with it: dose 10-20 µM. A general note: A flow cytometer gives signals particle by particle.
Data set [2] has as its system K562. Put plainly: Induction of apoptosis in human K562 cells assessed as […] incubated for 24 hrs by AnnexinV-FITC/propidium iodide staining based flow cytometric analysis (reference value: 31 +/- 0.4 %). It counts as functional.
Data set [3] in a line: Drug uptake in human K562 cells at 5 uM incubated for 1 hrs by flow cytometry analysis. It counts as ADME, cell-based. As to conditions: k562, 1 h.
A short description of data set [4]: Drug uptake in human K562 cells at 5 uM incubated for 4 hrs by Hoechst 33258 staining based fluorescence microscopic analysis. It counts as ADME, cell-based. As to conditions: k562, 4 h.
Data set [5] is described as follows: Drug uptake in human U-937 cells at 5 uM incubated for 4 hrs by flow cytometric analysis. It is filed as ADME, cell-based. The note with it: u-937, 4 h.
The subject of another data set is U-937. The data set can be described thus: Induction of apoptosis in human U-937 cells incubated for 24 hrs by AnnexinV-FITC/propidium iodide staining based flow cytometric analysis. It counts as functional, cell-based. As to conditions: U-937, 24 h.
Data set [6] deals with K562. The data set can be described thus: Induction of apoptosis in human K562 cells incubated for 24 hrs by AnnexinV-FITC/propidium iodide staining based flow cytometric analysis. It counts as functional, cell-based. The note with it: K562, 24 h.
In data set [7] the test system is K562. The data set can be described thus: Induction of apoptosis in human K562 cells assessed as late apoptotic cells at 1.5625 to 25 uM incubated for 24 hrs by AnnexinV-FITC/propidium iodide staining based flow cytometric analysis. It counts as functional, cell-based. The note with it: dose 1.5625-25 µM.
The subject of data set [8] is K562. Put plainly: Induction of apoptosis in human K562 cells assessed as early apoptotic cells at 1.5625 to 25 uM incubated for 24 hrs by AnnexinV-FITC/propidium iodide staining based flow cytometric analysis. It is filed as functional, cell-based. As to conditions: dose 1.5625-25 µM.

On to `CC[C@H](C)[C@H](NC(=O)[C@@H]1CCCN1C(=O)[C@@H](NC(=O)[C@@H](C)N)C(C)C)C(=O)N[C@@H](Cc1ccccc1)C(=O)N[C@@H](CCCCN)C(=O)N[C@@H](Cc1ccccc1)C(=O)N[C@@H](CC(C)C)C(=O)N[C@@H](CC(=O)O)C(=O)N[C@H](C(=O)N[C@@H](CC(C)C)C(=O)N[C@H](C(=O)N[C@H](C(=O)N[C@@H](CC(C)C)C(=O)N[C@@H](Cc1cnc[nH]1)C(=O)N[C@@H](CCCNC(=N)N)C(=O)N[C@H](C(=O)N[C@@H](CCC(N)=O)C(=O)N[C@@H](CCCNC(=N)N)C(=O)N[C@@H](CCCCN)C(=O)N[C@@H](CCCNC(=N)N)C(=O)N[C@@H](CCC(N)=O)C(=O)N[C@@H](CCCCN)C(=O)N[C@@H](CC(C)C)C(=O)N[C@@H](CCSC)C(=O)N1CCC[C@H]1C(=O)O)C(C)C)C(C)C)C(C)C)[C@@H](C)O`, for which, in the data set on K562 [1], the result was Active. For the same compound, the Activity in the data set with K562 [2] is listed as 44%.

For `CC(C)C[C@H](NC(=O)[C@H](Cc1ccccc1)NC(=O)c1ccccc1-c1c2ccc(=O)cc-2oc2cc(O)ccc12)C(=O)N[C@@H](CC(=O)O)C(=O)N[C@H](C(=O)N[C@@H](CC(C)C)C(=O)N[C@H](C(=O)N[C@H](C(=O)N[C@@H](CC(C)C)C(=O)N[C@@H](Cc1cnc[nH]1)C(=O)N[C@@H](CCCNC(=N)N)C(=O)O)C(C)C)C(C)C)[C@@H](C)O` (X1-FLDTLVVLHR-OH), the Drug uptake result in [3] is on record as “Active”.

In the case of `CSCC[C@H](NC(=O)[C@H](CC(C)C)NC(=O)[C@H](CCCCN)NC(=O)[C@H](CCC(N)=O)NC(=O)[C@H](CCCNC(=N)N)NC(=O)[C@H](CCCCN)NC(=O)[C@H](CCCNC(=N)N)NC(=O)[C@H](CCC(N)=O)NC(=O)[C@@H](NC(=O)[C@H](CCCNC(=N)N)NC(=O)[C@H](Cc1cnc[nH]1)NC(=O)[C@H](CC(C)C)NC(=O)[C@@H](NC(=O)[C@@H](NC(=O)[C@H](CC(C)C)NC(=O)[C@@H](NC(=O)[C@H](CC(=O)O)NC(=O)[C@H](CC(C)C)NC(=O)[C@H](Cc1ccccc1)NC(=O)c1ccccc1-c1c2ccc(=O)cc-2oc2cc(O)ccc12)[C@@H](C)O)C(C)C)C(C)C)C(C)C)C(=O)N1CCC[C@H]1C(=O)O` (X1-FLDTLVVLHRVQRKRQKLMP-OH), the Drug uptake result in [4], in data set [3] and in [5] was “Active” each time.

Turning to H-FLDTLVVLHR-OH, the half-maximal inhibitory concentration (IC50) was found to be 374 µM with U-937 and 30.1 µM with K562 [6].

For the compound H-FLDTLVVLHRVQRKRQKLMP-OH, the result in the data set with K562 [7] and in the data set with K562 [8] was Active. The IC50 with U-937 was determined as 1390 µM; in the data set with K562 [6], 5.58 µM. For the same compound, in the data set on K562 [2], the Activity worked out at 36%.

By IC50 is commonly meant the concentration that gives 50% inhibition.

These data come from ChEMBL document CHEMBL5104106, “Designed hybrid anticancer nuclear-localized peptide inhibits aggressive cancer cell proliferation” (RSC Med Chem, 2022).
